This assay addresses T1, HA-I841A CaSR mutant (Rattus norvegicus, UniProt P48442, I841A).
T1 construct: mGluR5 signal peptide (N); expressed in transfected cells; host or cells: HEK293T
T1 sequence (P48442 20-1079 I841A): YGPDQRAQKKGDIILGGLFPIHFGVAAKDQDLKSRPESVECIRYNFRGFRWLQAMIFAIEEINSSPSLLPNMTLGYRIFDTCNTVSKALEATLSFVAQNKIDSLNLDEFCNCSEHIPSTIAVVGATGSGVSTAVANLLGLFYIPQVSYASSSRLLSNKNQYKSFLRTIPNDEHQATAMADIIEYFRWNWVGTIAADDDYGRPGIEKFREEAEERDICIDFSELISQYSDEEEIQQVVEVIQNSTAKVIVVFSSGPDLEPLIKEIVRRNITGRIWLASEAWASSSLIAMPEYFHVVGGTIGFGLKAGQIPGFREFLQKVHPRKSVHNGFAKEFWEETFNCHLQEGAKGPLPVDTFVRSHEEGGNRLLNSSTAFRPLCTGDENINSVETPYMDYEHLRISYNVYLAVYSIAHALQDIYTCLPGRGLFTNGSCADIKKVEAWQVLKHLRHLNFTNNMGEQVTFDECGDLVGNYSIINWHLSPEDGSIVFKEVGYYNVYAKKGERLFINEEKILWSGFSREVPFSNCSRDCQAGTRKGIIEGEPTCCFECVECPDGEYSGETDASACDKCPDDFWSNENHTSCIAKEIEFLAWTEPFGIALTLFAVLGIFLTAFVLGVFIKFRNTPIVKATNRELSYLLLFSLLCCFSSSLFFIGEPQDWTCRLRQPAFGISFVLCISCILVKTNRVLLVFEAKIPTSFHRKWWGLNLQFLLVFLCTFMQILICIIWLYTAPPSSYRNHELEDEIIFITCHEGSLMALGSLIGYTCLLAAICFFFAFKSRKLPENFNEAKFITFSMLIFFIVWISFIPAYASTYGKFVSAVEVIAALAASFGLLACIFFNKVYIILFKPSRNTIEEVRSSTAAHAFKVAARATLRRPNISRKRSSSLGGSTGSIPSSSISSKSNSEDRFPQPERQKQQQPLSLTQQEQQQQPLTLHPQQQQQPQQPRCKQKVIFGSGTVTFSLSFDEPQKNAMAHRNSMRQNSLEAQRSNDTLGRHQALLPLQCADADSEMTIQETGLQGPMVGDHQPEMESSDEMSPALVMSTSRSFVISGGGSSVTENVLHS
Nature of the assay: IP-One assay, HEK293T transiently transfected. Type of assay: cell-based.

The structures appear in SMILES notation.

Regarding `[Ca+2]` [Ca^2+], the EC50 is, setting by setting: (Ca^2+ alone) 2.59 mM; (Ca^2+ with 1 μM NPS R-568) 3.68 mM; (Ca^2+ with 5 μM NPS 2143) 5.29 mM. The “pEC50 ± S.E.M.” value is on record as 2.59 ± 0.01 (Ca^2+ alone) and 2.28 ± 0.03 (Ca^2+ with 5 μM NPS 2143). Besides, the “Max ± S.E.M.” value was 81 ± 14% (Ca^2+ alone, normalized to maximum response of WT CaSR); 99 ± 18% (Ca^2+ with 1 μM NPS R-568, normalized to maximum response with Ca^2+ alone for the construct); 97 ± 7.6% (Ca^2+ with 5 μM NPS 2143, normalized to maximum response with Ca^2+ alone for the construct).

Source of the values: paper PMC5394417, “Investigating the molecular mechanism of positive and negative allosteric modulators in the calcium-sensing receptor dimer” (Scientific Reports, 2017).
